Experimental data as given in ChEMBL document CHEMBL6083262, “Stereorandomized Oncocins with Preserved Ribosome Binding and Antibacterial Activity” (J Med Chem, 2024).
The source made the active and inactive calls. No cut-off for these calls is given here. Positions of bridges follow the written chain, without caps; N, C: chain ends. Non-standard residues stand in square brackets, D forms with d. Residues, ends and D or L forms follow the SMILES beside them. *: point of attachment. X1 = CC[C@H](C)CCCCC(=O)*; Dab = NCC[C@H](N)C(=O)O

Assays:
Escherichia coli [1] = experiment: Antimicrobial activity against Escherichia coli W3110 incubated for 16 to 20 hrs in full muller hinton medium by broth microdilution method; format: functional; conditions: time 16-20 hrs
Klebsiella pneumoniae [2] = experiment: Antimicrobial activity against Klebsiella pneumoniae NCTC 418 incubated for 16 to 20 hrs in full muller hinton medium by broth microdilution method; format: functional; conditions: time 16-20 hrs
Pseudomonas aeruginosa [3] = experiment: Antimicrobial activity against Pseudomonas aeruginosa PAO1 incubated for 16 to 20 hrs in full muller hinton medium by broth microdilution method; format: functional; conditions: time 16-20 hrs
Acinetobacter baumannii [4] = experiment: Antimicrobial activity against Acinetobacter baumannii ATCC 19606 incubated for 16 to 20 hrs in full muller hinton medium by broth microdilution method; format: functional; conditions: time 16-20 hrs
Staphylococcus aureus [5] = experiment: Antimicrobial activity against methicillin-resistant Staphylococcus aureus COL incubated for 16 to 20 hrs in full muller hinton medium by broth microdilution method; format: functional; conditions: time 16-20 hrs
Klebsiella pneumoniae [6] = experiment: Antimicrobial activity against Klebsiella pneumoniae NCTC 418 incubated for 16 to 20 hrs in 12.5 % muller hinton medium by broth microdilution method; format: functional; conditions: time 16-20 hrs
Pseudomonas aeruginosa [7] = experiment: Antimicrobial activity against Pseudomonas aeruginosa PAO1 incubated for 16 to 20 hrs in 12.5 % muller hinton medium by broth microdilution method; format: functional; conditions: time 16-20 hrs
Acinetobacter baumannii [8] = experiment: Antimicrobial activity against Acinetobacter baumannii ATCC 19606 incubated for 16 to 20 hrs in 12.5 % muller hinton medium by broth microdilution method; format: functional; conditions: time 16-20 hrs
Staphylococcus aureus [9] = experiment: Antimicrobial activity against methicillin-resistant Staphylococcus aureus COL incubated for 16 to 20 hrs in 12.5 % muller hinton medium by broth microdilution method; format: functional; conditions: time 16-20 hrs
[10] = Hemolytic activity in human RBC incubated for 4 hrs; format: toxicity, cell-based; conditions: erythrocyte
rRNA = experiment: Binding affinity to [gamma32 P-ATP] labeled Escherichia coli MG1655 23S ribosomal RNA (5-CCCTTGGGACCTACTTC-3') at U2506 position assessed as increase in band intensity at 1 uM incubated for 2.5 hrs in full muller hinton medium by CMCT based gel electrophoresis; format: nucleic-acid assay
Pseudomonas aeruginosa [11] = experiment: Antibacterial activity against multidrug-resistant Pseudomonas aeruginosa PA14 incubated for 16 to 20 hrs in full muller hinton medium by broth microdilution method; format: functional; conditions: time 16-20 hrs
Pseudomonas aeruginosa [12] = experiment: Antibacterial activity against multidrug-resistant Pseudomonas aeruginosa PA14 incubated for 16 to 20 hrs in 12.5 % muller hinton medium by broth microdilution method; format: functional; conditions: time 16-20 hrs
Pseudomonas aeruginosa [13] = experiment: Antibacterial activity against multidrug-resistant Pseudomonas aeruginosa PA14 4.13 harboring phoQ mutant incubated for 16 to 20 hrs in full muller hinton medium by broth microdilution method; format: functional; conditions: time 16-20 hrs
Pseudomonas aeruginosa [14] = experiment: Antibacterial activity against multidrug-resistant Pseudomonas aeruginosa PA14 4.13 harboring phoQ mutant incubated for 16 to 20 hrs in 12.5 % muller hinton medium by broth microdilution method; format: functional; conditions: time 16-20 hrs
Pseudomonas aeruginosa [15] = experiment: Antibacterial activity against multidrug-resistant Pseudomonas aeruginosa PA14 4.18 harboring pmrB mutant incubated for 16 to 20 hrs in full muller hinton medium by broth microdilution method; format: functional; conditions: time 16-20 hrs
Pseudomonas aeruginosa [16] = experiment: Antibacterial activity against multidrug-resistant Pseudomonas aeruginosa PA14 4.18 harboring pmrB mutant incubated for 16 to 20 hrs in 12.5 % muller hinton medium by broth microdilution method; format: functional; conditions: time 16-20 hrs
Pseudomonas aeruginosa [17] = experiment: Antibacterial activity against multidrug-resistant Pseudomonas aeruginosa PA14 2P4 harboring pmrB mutant incubated for 16 to 20 hrs in full muller hinton medium by broth microdilution method; format: functional; conditions: time 16-20 hrs
Pseudomonas aeruginosa [18] = experiment: Antibacterial activity against multidrug-resistant Pseudomonas aeruginosa clinical isolate ZEM-1A incubated for 16 to 20 hrs in full muller hinton medium by broth microdilution method; format: functional; conditions: time 16-20 hrs
Pseudomonas aeruginosa [19] = experiment: Antibacterial activity against multidrug-resistant Pseudomonas aeruginosa clinical isolate ZEM-1A incubated for 16 to 20 hrs in 12.5 % muller hinton medium by broth microdilution method; format: functional; conditions: time 16-20 hrs
Pseudomonas aeruginosa [20] = experiment: Antibacterial activity against multidrug-resistant Pseudomonas aeruginosa clinical isolate ZEM9A incubated for 16 to 20 hrs in full muller hinton medium by broth microdilution method; format: functional; conditions: time 16-20 hrs
Pseudomonas aeruginosa [21] = experiment: Antibacterial activity against multidrug-resistant Pseudomonas aeruginosa clinical isolate ZEM9A incubated for 16 to 20 hrs in 12.5 % muller hinton medium by broth microdilution method; format: functional; conditions: time 16-20 hrs
Klebsiella pneumoniae [22] = experiment: Antibacterial activity against multidrug-resistant Klebsiella pneumoniae clinical isolate OXA-48 incubated for 16 to 20 hrs in full muller hinton medium by broth microdilution method; format: functional; conditions: time 16-20 hrs
Klebsiella pneumoniae [23] = experiment: Antibacterial activity against multidrug-resistant Klebsiella pneumoniae clinical isolate OXA-48 incubated for 16 to 20 hrs in 12.5 % muller hinton medium by broth microdilution method; format: functional; conditions: time 16-20 hrs
Enterobacter cloacae [24] = experiment: Antibacterial activity against multidrug-resistant Enterobacter cloacae incubated for 16 to 20 hrs in full muller hinton medium by broth microdilution method; format: functional; conditions: time 16-20 hrs
Bacteria = experiment: Binding affinity to his-tagged DnaK (unknown origin) expressed in Escherichia coli BL21 (DE3) in dilute muller hinton medium by microscale thermophoresis analysis
Escherichia coli [25] = experiment: Antimicrobial activity against Escherichia coli W3110 incubated for 16 to 20 hrs in 12.5 % muller hinton medium by broth microdilution method; format: functional; conditions: time 16-20 hrs
Pseudomonas aeruginosa [26] = experiment: Antibacterial activity against multidrug-resistant Pseudomonas aeruginosa PA14 2P4 harboring pmrB mutant incubated for 16 to 20 hrs in 12.5 % muller hinton medium by broth microdilution method; format: functional; conditions: time 16-20 hrs
Enterobacter cloacae [27] = experiment: Antibacterial activity against multidrug-resistant Enterobacter cloacae incubated for 16 to 20 hrs in 12.5 % muller hinton medium by broth microdilution method; format: functional; conditions: time 16-20 hrs

SMILES: CC[C@H](C)[C@H](NC(=O)[C@H](CCCNC(=N)N)NC(=O)[C@H](CCCNC(=N)N)NC(=O)[C@@H]1CCCN1C(=O)[C@@H]1CCCN1C(=O)[C@H](CCCNC(=N)N)NC(=O)[C@@H]1CCCN1C(=O)[C@H](CCCNC(=N)N)NC(=O)[C@@H]1CCCN1C(=O)[C@@H](CC(C)C)NC(=O)[C@H](Cc1ccc(O)cc1)NC(=O)[C@@H]1CCCN1C(=O)[C@@H]1CCCN1C(=O)[C@H](CCCCN)NC(=O)[C@H](CC(=O)O)NC(=O)[C@@H](N)C(C)C)C(=O)N[C@@H](Cc1ccc(O)cc1)C(=O)N[C@@H](CC(N)=O)C(=O)N[C@@H](CCCNC(=N)N)C(N)=O (H-VDKPPY[dL]PRPRPPRRIYNR-NH2)
- MIC (Escherichia coli [1]): > 64 µg/mL
- MIC (Klebsiella pneumoniae [2]): > 64 µg/mL
- MIC (Pseudomonas aeruginosa [3]): > 64 µg/mL
- MIC (Acinetobacter baumannii [4]): > 64 µg/mL
- MIC (Staphylococcus aureus [5]): > 64 µg/mL
- MIC (Klebsiella pneumoniae [6]): > 16 µg/mL
- MIC (Pseudomonas aeruginosa [7]): > 16 µg/mL
- MIC (Acinetobacter baumannii [8]): > 16 µg/mL
- MIC (Staphylococcus aureus [9]): > 64 µg/mL
- MHC [10]: > 1000 µg/mL
- Activity (rRNA): inactive
- MIC (Pseudomonas aeruginosa [11]): > 32 µg/mL
- MIC (Pseudomonas aeruginosa [12]): > 32 µg/mL
- MIC (Pseudomonas aeruginosa [13]): > 32 µg/mL
- MIC (Pseudomonas aeruginosa [14]): > 32 µg/mL
- MIC (Pseudomonas aeruginosa [15]): > 32 µg/mL
- MIC (Pseudomonas aeruginosa [16]): > 32 µg/mL
- MIC (Pseudomonas aeruginosa [17]): > 64 µg/mL
- MIC (Pseudomonas aeruginosa [18]): > 64 µg/mL
- MIC (Pseudomonas aeruginosa [19]): > 64 µg/mL
- MIC (Pseudomonas aeruginosa [20]): > 64 µg/mL
- MIC (Pseudomonas aeruginosa [21]): > 64 µg/mL
- MIC (Klebsiella pneumoniae [22]): > 64 µg/mL
- MIC (Klebsiella pneumoniae [23]): > 64 µg/mL
- MIC (Enterobacter cloacae [24]): > 64 µg/mL

SMILES: CC[C@@H](C)[C@@H](NC(=O)[C@@H](CCCNC(=N)N)NC(=O)[C@@H](CCCNC(=N)N)NC(=O)[C@H]1CCCN1C(=O)[C@H]1CCCN1C(=O)[C@@H](CCCNC(=N)N)NC(=O)[C@H]1CCCN1C(=O)[C@@H](CCCNC(=N)N)NC(=O)[C@H]1CCCN1C(=O)[C@@H](CC(C)C)NC(=O)[C@@H](Cc1ccc(O)cc1)NC(=O)[C@H]1CCCN1C(=O)[C@H]1CCCN1C(=O)[C@@H](CCCCN)NC(=O)[C@@H](CC(=O)O)NC(=O)[C@H](N)C(C)C)C(=O)N[C@H](Cc1ccc(O)cc1)C(=O)N[C@H](CC(N)=O)C(=O)N[C@H](CCCNC(=N)N)C(N)=O (H-[dV][dD][dK][dP][dP][dY][dL][dP][dR][dP][dR][dP][dP][dR][dR][dI][dY][dN][dR]-NH2)
- MIC (Klebsiella pneumoniae [2]): > 64 µg/mL
- MIC (Pseudomonas aeruginosa [3]): > 64 µg/mL
- MIC (Acinetobacter baumannii [4]): > 64 µg/mL
- MIC (Staphylococcus aureus [5]): > 64 µg/mL
- MIC (Klebsiella pneumoniae [6]): > 16 µg/mL
- MHC [10]: > 1000 µg/mL
- Activity (rRNA): inactive
- MIC (Pseudomonas aeruginosa [11]): > 64 µg/mL
- MIC (Pseudomonas aeruginosa [13]): > 64 µg/mL
- MIC (Pseudomonas aeruginosa [15]): > 64 µg/mL
- MIC (Pseudomonas aeruginosa [17]): > 64 µg/mL
- MIC (Pseudomonas aeruginosa [18]): > 64 µg/mL
- MIC (Pseudomonas aeruginosa [19]): > 64 µg/mL
- MIC (Pseudomonas aeruginosa [20]): > 64 µg/mL
- MIC (Klebsiella pneumoniae [22]): > 64 µg/mL
- MIC (Enterobacter cloacae [24]): > 64 µg/mL
- Activity (Bacteria): inactive

SMILES: CC(C)CCCCC(=O)N[C@@H](CCN)C(=O)N[C@H](C(=O)N[C@@H](CCN)C(=O)N[C@H]1CCNC(=O)[C@H]([C@@H](C)O)NC(=O)[C@H](CCN)NC(=O)[C@H](CCN)NC(=O)[C@H](CC(C)C)NC(=O)[C@@H](Cc2ccccc2)NC(=O)[C@H](CCN)NC1=O)[C@@H](C)O.CC[C@H](C)CCCCC(=O)N[C@@H](CCN)C(=O)N[C@H](C(=O)N[C@@H](CCN)C(=O)N[C@H]1CCNC(=O)[C@H]([C@@H](C)O)NC(=O)[C@H](CCN)NC(=O)[C@H](CCN)NC(=O)[C@H](CC(C)C)NC(=O)[C@@H](Cc2ccccc2)NC(=O)[C@H](CCN)NC1=O)[C@@H](C)O (X1-[Dab]T[Dab][Dab][Dab][dF]L[Dab][Dab]T; lactam 4-C)
- MIC (Escherichia coli [1]): 0.25 µg/mL
- MIC (Klebsiella pneumoniae [2]): 0.5 µg/mL
- MIC (Pseudomonas aeruginosa [3]): 0.5 µg/mL
- MIC (Acinetobacter baumannii [4]): 0.25 µg/mL
- MIC (Staphylococcus aureus [5]): > 16 µg/mL
- MIC (Escherichia coli [25]): 0.2 µg/mL
- MIC (Klebsiella pneumoniae [6]): 1 µg/mL
- MIC (Pseudomonas aeruginosa [7]): 1 µg/mL
- MIC (Acinetobacter baumannii [8]): 0.5 µg/mL
- MIC (Staphylococcus aureus [9]): 16 µg/mL
- MIC (Pseudomonas aeruginosa [11]): > 0.5 µg/mL
- MIC (Pseudomonas aeruginosa [12]): 1 µg/mL
- MIC (Pseudomonas aeruginosa [13]): 2 µg/mL
- MIC (Pseudomonas aeruginosa [14]): 2 µg/mL
- MIC (Pseudomonas aeruginosa [15]): 2 µg/mL
- MIC (Pseudomonas aeruginosa [16]): 1 µg/mL
- MIC (Pseudomonas aeruginosa [17]): 4 µg/mL
- MIC (Pseudomonas aeruginosa [26]): 1 µg/mL
- MIC (Pseudomonas aeruginosa [18]): 16 µg/mL
- MIC (Pseudomonas aeruginosa [19]): 8 µg/mL
- MIC (Pseudomonas aeruginosa [20]): > 64 µg/mL
- MIC (Pseudomonas aeruginosa [21]): 2 µg/mL
- MIC (Klebsiella pneumoniae [22]): 1 µg/mL
- MIC (Klebsiella pneumoniae [23]): 1 µg/mL
- MIC (Enterobacter cloacae [24]): 2 µg/mL
- MIC (Enterobacter cloacae [27]): 1 µg/mL
